Data from patent US20260184675A1, “CHIRAL ISOMERIC SULFITE COMPOUND AND APPLICATION THEREOF” (Chengdu Hanova BioSciences Co., Ltd, priority 2024, published 2026).

Assays:
Magnaporthe grisea = assay type: cell-based; settings: 100 ppm; for Average antifungal rate (%) / Antifungal rate of Magnaporthe grisea (%), Replicate 1 / Antifungal rate of Magnaporthe grisea (%), Replicate 2 / Antifungal rate of Magnaporthe grisea (%), Replicate 3: 96-well plate; for Average antifungal rate (%): average of 3 replicates
[1] = system: eggs of Harmonia axyridis; test: Effect on hatching of eggs of Harmonia axyridis, egg card immersion; assay type: in vivo; settings: 100 ppm; for Number of hatched larvae 4 days after insecticide delivery, Replicate 1 / Number of hatched larvae 4 days after insecticide delivery, Replicate 2 / Number of hatched larvae 4 days after insecticide delivery, Replicate 3: Harmonia axyridis egg cards, immersed 30 seconds; for Hatching rate (%), Replicate 1 / Hatching rate (%), Replicate 2 / Hatching rate (%), Replicate 3: Harmonia axyridis eggs, 4 days after delivery
Description: The eggs of Harmonia axyridis cards (with approximately 20 eggs per card) were purchased from Henan Jiyuan Baiyun Industry Co., Ltd. in Henan Province. The number of eggs on the egg cards was counted as the basic number before insecticide delivery, and 5 cards were used as one treatment, with 3 replicates per treatment. After immersing the egg cards in a 100 ppm insecticide solution for 30 seconds, they were taken out and air dried, then cultivated under moisturizing conditions, and the […] were cultivated at 27° C. 4 days after insecticide delivery, the hatching status of eggs of Harmonia axyridis was investigated, and the prevention and control effect was calculated according to the following formula. [formula] [formula]

[2] = system: pest eggs of Tetranychus cinnabarinus; test: Effect on hatching of pest eggs of Tetranychus cinnabarinus, leaf disc method; assay type: in vivo; settings: for Hatching rate (%): 7 days after insecticide delivery; for inhibitory effect on the hatching of pest eggs of Tetranychus cinnabarinus (in words): 1 ppm
Description: (§1) • (1) Preparation of leaf discs containing eggs: 20 female adult mites of Tetranychus cinnabarinus were transferred onto leaf discs of Vicia faba with a diameter of 2.0 cm (with wetted filter paper at the bottom), then covered it with a lidded culture dish and cultivated under moisturizing conditions, the adult mites were removed within 36 hours and microscopic examination and counting were performed on leaf discs containing eggs. • (2) Investigation of egg population base: Before pesticide soaking, a microscopic examination was conducted on the egg basic number of each leaf disc, with 2 replicates set for each treatment. • (3) Pesticide soaking treatment: The leaf butterflies loaded with mite eggs were soaked in clear water and sulfite compounds for 10 seconds, respectively, then taken out and cultivated under moisturizing conditions. Each treatment should be repeated for no less than 3 times. • (4) Cultivation and observation: The […] were cultivated under normal conditions. Five days after insecticide delivery, the hatching status of mite eggs was investigated. • Note: The temperature and humidity conditions of the constant temperature and humidity incubator after the treatment should be controlled so as to avoid excessive temperature differences, which may cause generation and dripping of condensate water in the culture dish, resulting in abnormal death of eggs due to soaking in water; it is also necessary to ensure sufficient strong ambient light, without directing irradiating the leaves. • (5) Survey of Results: The experimental materials of each treatment group were regularly hydrated and moisturized, and the hatching of eggs was observed. On the 7th day after insecticide delivery, the number of hatched eggs for each treatment was recorded, and the survey of results was recorded in the original notebook. According to the experimental requirements and characteristics of agents, the survey time can be shortened or extended. • 1) Surveying and recording the number of hatched eggs for each treatment. • 2) Photographing and recording whether there was any pesticide damage to the leaf discs of Vicia faba. • 3) Recording the developmental status of experimental mite eggs, behavior status of nymph mites, including abnormal phenomena such as delayed or stopped development of mite eggs, difficulty in breaking hull for nymph mites, or painful struggles after hatching, etc. • (6) Calculation method: Based on the survey data, the prevention and control effect of each treatment was calculated according to the following formula, and the calculation results were kept to two decimal places. [formula] [formula] [table]

eggs of Aleyrodidae = test: Effect on hatching of eggs of Aleyrodidae, leaf disc method; assay type: in vivo; settings: 10 ppm; for Hatching rate (%), Replicate 1 / Hatching rate (%), Replicate 2 / Hatching rate (%), Replicate 3 / Number of hatched larvae 5 days after insecticide delivery, Replicate 1 / Number of hatched larvae 5 days after insecticide delivery, Replicate 2 / Number of hatched larvae 5 days after insecticide delivery, Replicate 3: Aleyrodidae eggs; for Hatching rate (%), Replicate 1 / Hatching rate (%), Replicate 2 / Hatching rate (%), Replicate 3: 5 days after delivery; for Number of hatched larvae 5 days after insecticide delivery, Replicate 1 / Number of hatched larvae 5 days after insecticide delivery, Replicate 2 / Number of hatched larvae 5 days after insecticide delivery, Replicate 3: leaf disc
Description: as §1, with “extended.” for “extended. • 1) Surveying and recording the number of hatched eggs for each treatment. • 2) Photographing and recording whether there was any pesticide damage to the leaf discs of Vicia faba. • 3) Recording the developmental status of experimental mite eggs, behavior status of nymph mites, including abnormal phenomena such as delayed or stopped development of mite eggs, difficulty in breaking hull for nymph mites, or painful struggles after hatching, etc. • (6) Calculation method: Based on the survey data, the prevention and control effect of each treatment was calculated according to the following formula, and the calculation results were kept to two decimal places. [formula] [formula] [table]”
• 1) Surveying and recording the number of hatched eggs for each treatment. • 2) Photographing and recording whether there was any pesticide damage to the leaf discs of Vicia faba. • 3) Recording the developmental status of experimental mite eggs, behavior status of nymph mites, including abnormal phenomena such as delayed or stopped development of mite eggs, difficulty in breaking hull for nymph mites, or painful struggles after hatching, etc. • (6) Calculation method: Based on the survey data, the prevention and control effect of each treatment was calculated according to the following formula, and the calculation results were kept to two decimal places.
This test adopted the method in Test Example 1 of technical section, mainly used leaf disc method to explore the inhibitory effect on hatching of eggs of Aleyrodidae by compounds 1-(S,S), 1-(S,R), 1-(R,R), 1-(R,S), 1′-(S,S), 1′-(S,R), 1′-(R,R), 1′-(R,S), compound 1, compound 1′, S-10, R-10, S-10′, R-10′, compound 10, compound 10′, compound 19-(S,S), 19-(S,R), 19-(R,R), 19-(R,S), 19′-(S,S), 19′-(S,R), 19′-(R,R), 19′-(R,S), compound 19, and compound 19′. The concentration of all compounds was 10 ppm.

Compound | inhibitory rate against Magnaporthe grisea (in words) (Magnaporthe grisea) | Average antifungal rate (%) (Magnaporthe grisea) | Antifungal rate of Magnaporthe grisea (%), Replicate 1 (Magnaporthe grisea) [%] | Antifungal rate of Magnaporthe grisea (%), Replicate 2 (Magnaporthe grisea) [%] | Antifungal rate of Magnaporthe grisea (%), Replicate 3 (Magnaporthe grisea) [%] | inhibitory activity on the hatching of eggs of Harmonia axyridis (in words) [1] | Hatching rate (%) ([2]; 0.25 mg/L, Replicate 1) | Hatching rate (%) ([2]; 0.25 mg/L, Replicate 2) | Number of hatched larvae 7 days after insecticide delivery ([2]; 0.25 mg/L, Replicate 1) | Number of hatched larvae 7 days after insecticide delivery ([2]; 0.25 mg/L, Replicate 2) | Hatching rate (%) ([2]; 0.5 mg/L, Replicate 1) | Hatching rate (%) ([2]; 0.5 mg/L, Replicate 2) | Number of hatched larvae 7 days after insecticide delivery ([2]; 0.5 mg/L, Replicate 1) | Number of hatched larvae 7 days after insecticide delivery ([2]; 0.5 mg/L, Replicate 2) | Hatching rate (%) ([2]; 1 mg/L, Replicate 1) | Hatching rate (%) ([2]; 1 mg/L, Replicate 2) | Number of hatched larvae 7 days after insecticide delivery ([2]; 1 mg/L, Replicate 1) | Number of hatched larvae 7 days after insecticide delivery ([2]; 1 mg/L, Replicate 2) | inhibitory effect on the hatching of pest eggs of Tetranychus cinnabarinus (in words) [2] | inhibitory activity on the hatching of eggs of Aleyrodidae (in words) (eggs of Aleyrodidae) | other results
CC(C)(COc1ccc(Cl)cc1Cl)OS(=O)OCCF (stereo not drawn) [Compound S-10] | strong inhibitory rate | 98.62 | 98.63 | 99.72 | 97.51 | strong inhibitory activities | 39.51 | 41.79 | 49 | 39 | 4.62 | 3.39 | 62 | 57 | 0.00 | 0.00 | 78 | 84 | excellent inhibitory effects | strong inhibitory activities | Number of hatched larvae 4 days after insecticide delivery, Replicate 1 [1]: 0; Number of hatched larvae 4 days after insecticide delivery, Replicate 2 [1]: 0; Number of hatched larvae 4 days after insecticide delivery, Replicate 3 [1]: 0; Hatching rate (%), Replicate 1 [1]: 0.00%; Hatching rate (%), Replicate 2 [1]: 0.00%; Hatching rate (%), Replicate 3 [1]: 0.00%; Hatching rate (%), Replicate 1 (eggs of Aleyrodidae): 0.00%; Hatching rate (%), Replicate 2 (eggs of Aleyrodidae): 0.00%; Hatching rate (%), Replicate 3 (eggs of Aleyrodidae): 0.00%; Number of hatched larvae 5 days after insecticide delivery, Replicate 1 (eggs of Aleyrodidae): 0; Number of hatched larvae 5 days after insecticide delivery, Replicate 2 (eggs of Aleyrodidae): 0; Number of hatched larvae 5 days after insecticide delivery, Replicate 3 (eggs of Aleyrodidae): 0
CC(COc1ccc(Cl)cc1Cl)OS(=O)OCCF [1′-(S,R)] | strong inhibitory rate | 99.22 | 95.80 | 102.01 | 99.85 | strong inhibitory activities | 42.86 | 44.83 | 28 | 32 | 8.89 | 3.23 | 41 | 60 | 0.00 | 0.00 | 69 | 78 | excellent inhibitory effects | strong inhibitory activities | Number of hatched larvae 4 days after insecticide delivery, Replicate 1 ([1]; listed as 1′-(S, R)): 0; Number of hatched larvae 4 days after insecticide delivery, Replicate 2 ([1]; listed as 1′-(S, R)): 0; Number of hatched larvae 4 days after insecticide delivery, Replicate 3 ([1]; listed as 1′-(S, R)): 0; Hatching rate (%), Replicate 1 ([1]; listed as 1′-(S, R)): 0.00%; Hatching rate (%), Replicate 2 ([1]; listed as 1′-(S, R)): 0.00%; Hatching rate (%), Replicate 3 ([1]; listed as 1′-(S, R)): 0.00%; Hatching rate (%), Replicate 1 (eggs of Aleyrodidae; listed as 1′-(S, R)): 0.00%; Hatching rate (%), Replicate 2 (eggs of Aleyrodidae; listed as 1′-(S, R)): 0.00%; Hatching rate (%), Replicate 3 (eggs of Aleyrodidae; listed as 1′-(S, R)): 0.00%; Number of hatched larvae 5 days after insecticide delivery, Replicate 1 (eggs of Aleyrodidae; listed as 1′-(S, R)): 0; Number of hatched larvae 5 days after insecticide delivery, Replicate 2 (eggs of Aleyrodidae; listed as 1′-(S, R)): 0; Number of hatched larvae 5 days after insecticide delivery, Replicate 3 (eggs of Aleyrodidae; listed as 1′-(S, R)): 0
CC(COS(=O)OCCF)Oc1ccc(Cl)cc1Cl (stereo not drawn) [Compound 1] | strong inhibitory rate | 95.42 | 96.34 | 95.11 | 94.82 | strong inhibitory activities | 72.22 | 67.92 | 20 | 17 | 32.58 | 38.30 | 42 | 29 | 0.00 | 1.64 | 53 | 60 | excellent inhibitory effects | strong inhibitory activities | Number of hatched larvae 4 days after insecticide delivery, Replicate 1 [1]: 7; Number of hatched larvae 4 days after insecticide delivery, Replicate 2 [1]: 6; Number of hatched larvae 4 days after insecticide delivery, Replicate 3 [1]: 6; Hatching rate (%), Replicate 1 [1]: 6.25%; Hatching rate (%), Replicate 2 [1]: 6.38%; Hatching rate (%), Replicate 3 [1]: 6.06%; Hatching rate (%), Replicate 1 (eggs of Aleyrodidae): 0.00%; Hatching rate (%), Replicate 2 (eggs of Aleyrodidae): 1.50%; Hatching rate (%), Replicate 3 (eggs of Aleyrodidae): 0.00%; Number of hatched larvae 5 days after insecticide delivery, Replicate 1 (eggs of Aleyrodidae): 0; Number of hatched larvae 5 days after insecticide delivery, Replicate 2 (eggs of Aleyrodidae): 2; Number of hatched larvae 5 days after insecticide delivery, Replicate 3 (eggs of Aleyrodidae): 0
